Several values for one entry are separate records, joined by “and”; a condition that tells them apart may be missing. Equal values may be shown once. Read-outs that look alike come from different tables or passages of the source.
Assays:
[1] = DPPH free radical scavenging assay; type: biochemical
Description: The 1,1-diphenyl-2-picrylhydrazyl free radicals of the compounds were performed by using the reported method. Different concentrations of the compounds were mixed with DPPH methanolic solution of 0.004%. After half an hour, the absorption was determined with a double-beam UV-visible spectrophotometer at 517 nm. The same standard (ascorbic acid) was used as in the ABTS assay. The experiments were repeated three times. The percent inhibitions and IC50 values of the compounds were calculated with the standard formula.

[2] = ABTS free radical scavenging assay; type: biochemical; settings: for ABTS IC50: ABTS radical scavenging, absorbance at 734 nm
Description: The ABTS free radical scavenging antioxidant activity of the compounds was performed by using the previously reported methods. In this activity, the compounds scavenge ABTS^+ cations, and thus, a reduction in absorption is observed at 734 nm using a UV-visible spectrophotometer. Solutions of 7 mM ABTS and 2.45 mM of […] were prepared and were mixed. The mixture was stored at dark for about 16 h to get ABTS cations which appeared dark in color. The solution of ABTS cation was diluted with phosphate buffer (0.01 M having pH of 7.4); the absorbance value (0.70) was adjusted at 734 nm. To confirm the ABTS radicals' scavenging capacity, 300 μL solution of compound was mixed with 3.0 mL of ABTS. After one minute, the reduction in absorption was noted and was monitored for six minutes. The ascorbic acid was used as positive control in this activity. The experiments were repeated three times. The percent inhibitions and its IC50 values were measured as per the standard method.

BChE = BChE (Homo sapiens, UniProt P06276); experiment: Anticholinesterase assay (BChE); type: biochemical
BChE, sequence (P06276 29-602, species assumed): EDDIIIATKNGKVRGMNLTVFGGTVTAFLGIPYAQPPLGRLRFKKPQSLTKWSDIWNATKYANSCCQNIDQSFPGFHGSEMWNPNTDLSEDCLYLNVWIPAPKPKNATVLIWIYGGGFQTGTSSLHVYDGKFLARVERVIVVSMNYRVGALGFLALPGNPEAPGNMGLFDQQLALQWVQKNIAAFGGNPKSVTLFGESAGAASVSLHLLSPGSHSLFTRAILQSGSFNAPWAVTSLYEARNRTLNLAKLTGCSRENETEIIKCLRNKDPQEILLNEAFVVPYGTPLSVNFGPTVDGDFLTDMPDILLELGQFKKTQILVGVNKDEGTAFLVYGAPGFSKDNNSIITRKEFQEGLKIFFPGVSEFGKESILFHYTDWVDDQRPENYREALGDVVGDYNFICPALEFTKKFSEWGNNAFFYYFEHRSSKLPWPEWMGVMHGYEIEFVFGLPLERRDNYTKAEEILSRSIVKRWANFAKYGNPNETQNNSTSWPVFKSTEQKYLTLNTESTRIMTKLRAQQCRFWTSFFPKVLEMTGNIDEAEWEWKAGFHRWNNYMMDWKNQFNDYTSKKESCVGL
Description: (§1) The two enzymes break down their respective thiocholine iodide to produce the ion 5-thio-2-nitrobenzoate. […] The enzyme dilutions were prepared in phosphate buffer having pH of 8. Parallelly, the acetyl and butyrylthiocholine iodide solutions (0.05 mM) and DTNB were also prepared in H2O (distilled water of our laboratory) and were stored at 8°C for 15 min. […] The experiments were performed three times. The percent inhibitions and their subsequent IC50 values were calculated as per the standard formula [43].

COX-2 = target: T1, COX-2 (Homo sapiens, UniProt P35354); experiment: Anticyclooxygenase assay (COX-2); type: biochemical
T1 sequence (P35354 18-604): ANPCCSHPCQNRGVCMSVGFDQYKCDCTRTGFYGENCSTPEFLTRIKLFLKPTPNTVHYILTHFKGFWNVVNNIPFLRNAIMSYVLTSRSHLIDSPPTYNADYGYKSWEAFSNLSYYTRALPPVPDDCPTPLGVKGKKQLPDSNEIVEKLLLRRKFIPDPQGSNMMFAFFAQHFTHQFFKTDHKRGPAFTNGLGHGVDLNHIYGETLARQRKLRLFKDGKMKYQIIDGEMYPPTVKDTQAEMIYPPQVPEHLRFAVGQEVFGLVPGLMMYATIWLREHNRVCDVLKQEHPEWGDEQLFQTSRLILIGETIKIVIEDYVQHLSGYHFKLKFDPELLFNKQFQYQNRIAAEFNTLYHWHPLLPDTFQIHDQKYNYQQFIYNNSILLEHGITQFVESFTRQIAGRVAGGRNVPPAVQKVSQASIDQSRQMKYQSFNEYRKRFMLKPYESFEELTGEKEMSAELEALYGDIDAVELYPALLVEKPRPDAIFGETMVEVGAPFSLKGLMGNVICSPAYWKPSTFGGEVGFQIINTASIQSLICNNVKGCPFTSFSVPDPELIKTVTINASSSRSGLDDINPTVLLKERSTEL
Description: (§2) The COX-1 enzyme 10 μL and COX-2 300 units/mL were activated on ice for 5 min. The activation solution was accompanied by a cofactor of 50 μL containing glutathione, hematin, 1.0 mM, and TMPD in Tris-HCl buffer with pH of 8. […] The reaction was initiated when arachidonic acid 20 μL was added. The reaction was incubated for 5 min, and absorbance was measured at 570 nm as per the reported procedure. The experiments were repeated three times.

5-LOX = experiment: 5-Lipoxygenase assay (5-LOX); type: biochemical
Description: The lipoxygenase enzyme 10,000 unit/μL was used in the assay. The substrate used in this assay was linoleic acid. […] The combined mixture was incubated at 25°C for 5 min. Afterwards, linoleic acid was properly mixed with it and was kept for 5 min. […] The experiments were performed three times. The percent 5-LOX inhibitions and the IC50 values were calculated as per the standard formula [44].

COX-1 = COX-1 (Homo sapiens, UniProt P23219); experiment: Anticyclooxygenase assay (COX-1); type: biochemical
COX-1, sequence (P23219 24-599): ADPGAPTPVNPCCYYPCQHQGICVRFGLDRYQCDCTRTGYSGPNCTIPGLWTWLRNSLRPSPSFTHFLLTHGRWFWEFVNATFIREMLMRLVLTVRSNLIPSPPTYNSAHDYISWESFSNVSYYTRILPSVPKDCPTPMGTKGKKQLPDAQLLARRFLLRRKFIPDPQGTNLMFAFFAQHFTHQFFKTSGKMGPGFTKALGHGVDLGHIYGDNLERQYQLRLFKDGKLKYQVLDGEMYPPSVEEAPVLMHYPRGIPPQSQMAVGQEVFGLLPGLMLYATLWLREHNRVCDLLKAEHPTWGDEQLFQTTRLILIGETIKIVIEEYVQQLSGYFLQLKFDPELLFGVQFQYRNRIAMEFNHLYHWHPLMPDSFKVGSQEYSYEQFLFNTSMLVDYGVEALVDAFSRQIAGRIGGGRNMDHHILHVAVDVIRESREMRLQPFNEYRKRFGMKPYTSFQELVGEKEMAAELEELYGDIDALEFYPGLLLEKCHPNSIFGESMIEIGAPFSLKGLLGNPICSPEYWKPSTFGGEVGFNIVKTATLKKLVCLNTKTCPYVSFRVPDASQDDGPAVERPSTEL
Description: as §2

AChE = AChE (Homo sapiens, UniProt P22303); experiment: biochemical
AChE, sequence (P22303 32-614): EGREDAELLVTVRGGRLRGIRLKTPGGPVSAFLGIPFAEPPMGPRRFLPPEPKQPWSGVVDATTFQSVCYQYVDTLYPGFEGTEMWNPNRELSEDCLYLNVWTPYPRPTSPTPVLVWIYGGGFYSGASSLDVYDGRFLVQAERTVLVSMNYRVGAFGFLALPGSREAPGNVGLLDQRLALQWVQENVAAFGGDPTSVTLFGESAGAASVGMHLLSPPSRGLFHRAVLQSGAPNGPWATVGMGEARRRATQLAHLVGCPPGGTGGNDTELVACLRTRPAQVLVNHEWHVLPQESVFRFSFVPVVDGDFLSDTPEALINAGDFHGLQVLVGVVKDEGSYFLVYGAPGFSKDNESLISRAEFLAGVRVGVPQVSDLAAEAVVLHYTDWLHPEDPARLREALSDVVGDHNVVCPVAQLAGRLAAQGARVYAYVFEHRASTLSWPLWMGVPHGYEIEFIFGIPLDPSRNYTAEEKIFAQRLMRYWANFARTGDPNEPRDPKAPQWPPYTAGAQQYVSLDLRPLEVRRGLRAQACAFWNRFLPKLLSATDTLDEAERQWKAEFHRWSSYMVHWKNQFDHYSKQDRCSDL
Description: as §1

[3] = target: T2, protein tyrosine phosphatase 1B (Homo sapiens, UniProt P18031); experiment: Protein tyrosine phosphatase 1B assay; type: biochemical
T2 sequence (P18031 1-435): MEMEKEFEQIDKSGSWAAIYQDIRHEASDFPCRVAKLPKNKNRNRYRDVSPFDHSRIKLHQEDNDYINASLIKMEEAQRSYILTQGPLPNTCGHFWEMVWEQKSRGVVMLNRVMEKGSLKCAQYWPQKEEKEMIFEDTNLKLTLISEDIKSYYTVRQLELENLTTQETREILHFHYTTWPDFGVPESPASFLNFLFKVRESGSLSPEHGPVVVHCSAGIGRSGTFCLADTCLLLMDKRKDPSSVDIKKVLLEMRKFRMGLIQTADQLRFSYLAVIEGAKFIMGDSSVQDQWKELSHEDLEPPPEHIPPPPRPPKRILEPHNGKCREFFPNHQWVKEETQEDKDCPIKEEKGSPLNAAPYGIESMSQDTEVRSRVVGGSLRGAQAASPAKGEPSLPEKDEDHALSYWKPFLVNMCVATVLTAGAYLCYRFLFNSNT
Description: In the PTP1B assay, 4-nitrophenylphosphate was used as substrate. The solution of dimethyl glutarate […] in buffer of pH 7 was prepared to be used in the assay. […] The solution was incubated at 37°C for 15 min. […] The experiments were performed three times. The percent inhibitions and their corresponding IC50 values were calculated as per the standard formula [46].

[4] = DPPH radical scavenging, absorbance at 517 nm
[5] = Tables 2 and 3 print no unit, text μg/mL, abstract μM
[6] = Table 2 prints no unit, text b63 μg/mL, abstract μM

## O=C1O[C@H]([C@@H](O)CO)C(O)=C1O [Ascorbic acid, reference compound]
[1]; [4]
  DPPH IC50: 0.840 µg/mL
[1]; [5]
  DPPH IC50: 0.840 ± 0.14 and 0.840 ± 0.04
[2]
  ABTS IC50: 0.211 µg/mL

## OCc1ccco1 [Compound 1, Furan-2-ylmethanol]
[1]; [4]
  DPPH IC50: 8.19 µg/mL
[2]
  ABTS IC50: 7.43 µg/mL

## CC1=C(O)C(=O)C(C)(O)O1 (centres unmarked) [Compound 2, 2,4-Dihydroxy-2,5-dimethylfuran-3(2H)-one]
[1]; [4]
  DPPH IC50: 1.61 µg/mL
[2]
  ABTS IC50: 3.005 µg/mL
[2]; at 31.25 μg/mL
  ABTS percent inhibition: 66.44
[2]; at 62.5 μg/mL
  ABTS percent inhibition: 71.47
[2]; at 125 μg/mL
  ABTS percent inhibition: 77.39
[2]; at 250 μg/mL
  ABTS percent inhibition: 83.34
[2]; at 500 μg/mL
  ABTS percent inhibition: 88.36

## C=Cc1ccc(O)cc1 [Compound 3, 4-Vinylphenol]
[1]; [4]
  DPPH IC50: 10.27 µg/mL
[2]
  ABTS IC50: 12.60 µg/mL

## COc1c(O)ccc(O)c1C [Compound 4, 2-Methoxy-3-methylbenzene-1,4-diol]
[1]; [4]
  DPPH IC50: 3.19 µg/mL
[2]
  ABTS IC50: 4.63 µg/mL

## COc1cc(C=O)ccc1O [Compound 5, 4-Hydroxy-3-methoxybenzaldehyde]
[1]; [4]
  DPPH IC50: 2.12 µg/mL
[2]
  ABTS IC50: 8.28 µg/mL

## COc1cc(/C=C2\CC(=O)N(c3ccc(O)cc3)C2=O)ccc1O [Compound 5A, (E)-3-(4-Hydroxy-3-methoxybenzylidene)-1-(4-hydroxyphenyl)pyrrolidine-2,5-dione]
BChE
  IC50: 15.1 µM
BChE; [6]
  IC50: 46.4 µM
COX-2; COX-2 IC50, Table 2 prints no unit, text b63 μg/mL, abstract μM
  IC50: 3.32 µM
COX-2; COX-2 IC50, as printed in abstract
  IC50: 1.08 µM
COX-2; ratio of COX-1 and COX-2 IC50
  SI (COX-2 selectivity index): 12.9
5-LOX; Table 2 prints no unit, text b63 μg/mL, abstract and b89 μM
  5-LOX IC50: 0.71 ± 0.10
5-LOX; as printed in abstract and b89
  IC50: 0.71 µM
[1]
  IC50: 1.05 µM
[1]; [5]
  DPPH IC50: 1.05 ± 0.51
COX-1; COX-1 IC50, Table 2 prints no unit, text b63 μg/mL, abstract μM
  IC50: 42.8 µM
COX-1; COX-1 IC50, as printed in abstract
  IC50: 13.9 µM
AChE
  IC50: 10.6 µM
AChE; [6]
  IC50: 32.6 µM
AChE; ratio of BChE IC50 to AChE IC50
  SI (selectivity index AChE/BChE): 1.42

## COc1cc(/C=C2\SC(=O)NC2=O)ccc1O [Compound 5B, (Z)-5-(4-Hydroxy-3-methoxybenzylidene)thiazolidine-2,4-dione]
[3]; read-out: protein tyrosine phosphatase 1B IC50
  IC50: 53.3 µM
[3]; unit inferred, text b66 μg/mL, abstract μM, read-out: PTP1B IC50 (converted)
  IC50: 212 µM
[1]
  IC50: 1.94 µM
[1]; [5]
  DPPH IC50: 1.94 ± 1.20

## COc1cc(CC(C)=O)ccc1O [Compound 6, 1-(4-Hydroxy-3-methoxyphenyl)propan-2-one]
[1]; [4]
  DPPH IC50: 9.99 µg/mL
[2]
  ABTS IC50: 9.55 µg/mL

— PMC9020998 (Oxidative Medicine and Cellular Longevity, 2022)
